Patent US12516044B2, “Heterocyclic compounds as immunomodulators” (Incyte Corporation, priority 2015, dated 2026)

These compounds were tested against T1, PD-1/PD-L1 protein/protein interaction (Homo sapiens, UniProt Q9NZQ7) (assay: PD-1/PD-L1 Homogeneous Time-Resolved Fluorescence (HTRF) Binding Assay). Conditions: recombinant human PD-L1 (19-238) His-tag and human PD-1 (25-167) Fc tag; 25° C., PBS pH 7.4.
T1 construct: Recombinant human PD-L1 protein (19-238) with a His-tag at the C-terminus; purchased AcroBiosystems PD1-H5229 (PD-L1-His); PD1-H5257 (PD-1-Fc)
T1 sequence (Q9NZQ7 19-238): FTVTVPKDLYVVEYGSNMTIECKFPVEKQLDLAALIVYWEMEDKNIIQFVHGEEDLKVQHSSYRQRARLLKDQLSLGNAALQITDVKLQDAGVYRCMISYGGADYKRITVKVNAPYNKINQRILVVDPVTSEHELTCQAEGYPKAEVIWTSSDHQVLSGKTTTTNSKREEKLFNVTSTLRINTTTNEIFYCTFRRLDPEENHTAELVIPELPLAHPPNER
Experimental: Example A. PD-1/PD-L1 Homogeneous Time-Resolved Fluorescence (HTRF) Binding Assay
The assays were conducted in a standard black 384-well polystyrene plate with a final volume of 20 μL. Inhibitors were first serially diluted in DMSO and then added to the plate wells before the addition of other reaction components. The final concentration of DMSO in the assay was 1%. The assays were carried out at 25° C. in the PBS buffer (pH 7.4) with 0.05% Tween-20 and 0.1% BSA. Recombinant human PD-L1 protein (19-238) with a His-tag at the C-terminus was purchased from AcroBiosystems (PD1-H5229). Recombinant human PD-1 protein (25-167) with Fc tag at the C-terminus was also purchased from AcroBiosystems (PD1-H5257). PD-L1 and PD-1 proteins were diluted in the assay buffer and 10 μL was added to the plate well. Plates were centrifuged and proteins were preincubated with inhibitors for 40 minutes. The incubation was followed by the addition of […] of HTRF detection buffer supplemented with Europium cryptate-labeled anti-human IgG (PerkinElmer-AD0212) specific for Fc and anti-His antibody conjugated to SureLight®-Allophycocyanin (APC, PerkinElmer-AD0059H). After centrifugation, the plate was incubated at 25° C. for 60 min. before reading on a PHERAstar FS plate reader (665 nm/620 nm ratio). Final concentrations in the assay were […] PD1, 10 nM PD-L1, 1 nM europium anti-human IgG and 20 nM anti-His-Allophycocyanin. IC50 determination was performed by fitting the curve of percent control activity versus the log of the inhibitor concentration using the GraphPad Prism 5.0 software.

Row | Compound | IC50 [nM]
1 | Cc1c(NC(=O)c2cc(CNCCO)ccn2)cccc1-c1ccccc1 [Example 23, 4-{[(2-hydroxyethyl)amino]methyl}-N-(2-methylbiphenyl-3-yl)pyridine-2-carboxamide] | 10 to 100
2 | Cc1c(NC(=O)c2ccnc(OCc3cccnc3)n2)cccc1-c1ccccc1 [Example 30, N-(2-methylbiphenyl-3-yl)-2-(pyridin-3-ylmethoxy)pyrimidine-4-carboxamide] | 100 to 1000
3 | N#Cc1c(NC(=O)c2ccc(CNCCO)cn2)cccc1-c1ccccc1 [Example 8, N-(2-cyanobiphenyl-3-yl)-5-{[(2-hydroxyethyl)amino]methyl}pyridine-2-carboxamide] | ≤ 10
4 | Cc1c(NC(=O)c2ccc(CNCCO)cn2)ccnc1-c1ccccc1 [Example 43, 5-{[(2-hydroxyethyl)amino]methyl}-N-(3-methyl-2-phenylpyridin-4-yl)pyridine-2-carboxamide] | 100 to 1000
5 | Cc1cnc(C(=O)Nc2cccc(-c3ccccc3)c2C)cc1CN1CCCC[C@H]1C(=O)O [Example 36, (2S)-1-[(5-methyl-2-{[(2-methylbiphenyl-3-yl)amino]carbonyl}pyridin-4-yl)methyl]piperidine-2-carboxylic Acid] | 10 to 100
6 | Cc1c(NC(=O)c2cc(C#N)ccn2)cccc1-c1ccccc1 [Example 25, 4-cyano-N-(2-methylbiphenyl-3-yl)pyridine-2-carboxamide] | 10 to 100
7 | Cc1c(NC(=O)c2ncc(CNCCO)cc2F)cccc1-c1ccccc1 [Example 17, 3-fluoro-5-{[(2-hydroxyethyl)amino]methyl}-N-(2-methylbiphenyl-3-yl)pyridine-2-carboxamide] | 10 to 100
8 | Cc1c(NC(=O)c2cnccn2)cccc1-c1ccccc1 [Example 26, N-(2-methylbiphenyl-3-yl)pyrazine-2-carboxamide] | 10 to 100
9 | N#Cc1c(NC(=O)c2ccc(CNCCO)cn2)cccc1C1CCCCC1 [Example 41, N-(2-cyano-3-cyclohexylphenyl)-5-{[(2-hydroxyethyl)amino]methyl}pyridine-2-carboxamide] | 10 to 100
10 | N#Cc1c(NC(=O)c2ccc(CNCCO)cn2)cccc1C1=CCCCC1 [Example 38, N-(2-cyano-3-cyclohex-1-en-1-ylphenyl)-5-{[(2-hydroxyethyl)amino]methyl} pyridine-2-carboxamide] | ≤ 10
11 | Cc1c(NC(=O)c2cc(OCc3cccnc3)c(CNCCO)cn2)cccc1-c1ccccc1 [Example 19, 5-{[(2-hydroxyethyl)amino]methyl}-N-(2-methylbiphenyl-3-yl)-4-(pyridin-3-ylmethoxy)pyridine-2-carboxamide] | 10 to 100
12 | Cc1c(NC(=O)c2ncc(CN3CCCC[C@H]3C(=O)O)cc2Cl)cccc1-c1ccccc1 [Example 15, (2S)-1-[(5-chloro-6-{[(2-methylbiphenyl-3-yl)amino]carbonyl}pyridin-3-yl)methyl]piperidine-2-carboxylic Acid] | 100 to 1000
13 | Cc1c(NC(=O)c2cc(-c3ccncc3)c(CNCCO)cn2)cccc1-c1ccccc1 [Example 31, 5-{[(2-hydroxyethyl)amino]methyl}-N-(2-methylbiphenyl-3-yl)-4,4′-bipyridine-2-carboxamide] | 10 to 100
14 | N#Cc1c(NC(=O)c2ccc(CN3CCCC[C@H]3C(=O)O)cn2)cccc1-c1ccccc1 [Example 7, (2S)-1-[(6-{[(2-cyanobiphenyl-3-yl)amino]carbonyl}pyridin-3-yl)methyl]piperidine-2-carboxylic Acid] | 10 to 100
15 | Cc1nc(C(=O)Nc2cccc(-c3ccccc3)c2C)ccc1CN1CCCC[C@H]1C(=O)O [Example 13, (2S)-1-[(2-methyl-6-{[(2-methylbiphenyl-3-yl)amino]carbonyl}pyridin-3-yl)methyl]piperidine-2-carboxylic Acid] | 100 to 1000
16 | Cc1c(NC(=O)c2cc(OCc3cccnc3)ncn2)cccc1-c1ccccc1 [Example 24, N-(2-methylbiphenyl-3-yl)-6-(pyridin-3-ylmethoxy)pyrimidine-4-carboxamide] | 100 to 1000
17 | Cn1cc2ccc(-c3cccc(NC(=O)c4ccc(CNCCO)cn4)c3C#N)cc2n1 [Example 48, N-[2-cyano-3-(2-methyl-2H-indazol-6-yl)phenyl]-5-{[(2-hydroxyethyl)amino]methyl}pyridine-2-carboxamide] | 10 to 100
18 | N#Cc1c(NC(=O)c2ccc(CNCCO)cn2)cccc1N1CCCCC1 [Example 39, N-(2-cyano-3-piperidin-1-ylphenyl)-5-{[(2-hydroxyethyl)amino]methyl}pyridine-2-carboxamide] | > 1000
19 | CC(C)(C)OC(=O)N1CCC=C(c2cccc(NC(=O)c3ccc(CNCCO)cn3)c2C#N)C1 [Example 40, tert-butyl 5-(2-cyano-3-{[(5-{[(2-hydroxyethyl)amino]methyl}pyridin-2-yl)carbonyl]amino}phenyl)-3,6-dihydropyridine-1(2H)-carboxylate] | 100 to 1000
20 | Cc1cc(CN2CCCC[C@H]2C(=O)O)cnc1C(=O)Nc1cccc(-c2ccccc2)c1C [Example 3, (2S)-1-[(5-methyl-6-{[(2-methylbiphenyl-3-yl)amino]carbonyl}pyridin-3-yl)methyl]piperidine-2-carboxylic Acid] | 100 to 1000
21 | Cc1c(NC(=O)c2cccnn2)cccc1-c1ccccc1 [Example 29, N-(2-methylbiphenyl-3-yl)pyridazine-3-carboxamide] | 100 to 1000
22 | CN1CCOc2cc(-c3cccc(NC(=O)c4ccc(CNCCO)cn4)c3C#N)ccc21 [Example 46, N-[2-cyano-3-(4-methyl-3,4-dihydro-2H-1,4-benzoxazin-7-yl)phenyl]-5-{[(2-hydroxyethyl)amino]methyl}pyridine-2-carboxamide] | 100 to 1000
23 | N#Cc1c(NC(=O)c2ccc(CNCCO)cn2)cccc1-c1ccc2c(c1)OCC2 [Example 47, N-[2-cyano-3-(2,3-dihydro-1-benzofuran-6-yl)phenyl]-5-{[(2-hydroxyethyl)amino]methyl}pyridine-2-carboxamide] | 10 to 100
24 | Cc1c(NC(=O)c2ncc(CN3CCCC[C@H]3C(=O)O)cn2)cccc1-c1ccccc1 [Example 5, (2S)-1-[(2-{[(2-methylbiphenyl-3-yl)amino]carbonyl}pyrimidin-5-yl)methyl]piperidine-2-carboxylic Acid] | 100 to 1000
25 | Cc1c(NC(=O)c2cc(OCc3ccccn3)c(CNCCO)cn2)cccc1-c1ccccc1 [Example 20, 5-{[(2-hydroxyethyl)amino]methyl}-N-(2-methylbiphenyl-3-yl)-4-(pyridin-2-ylmethoxy)pyridine-2-carboxamide] | 10 to 100
26 | Cc1cc(CNCCO)cnc1C(=O)Nc1cccc(-c2ccccc2)c1C [Example 4, 5-{[(2-hydroxyethyl)amino]methyl}-3-methyl-N-(2-methylbiphenyl-3-yl)pyridine-2-carboxamide] | 10 to 100
27 | Cc1c(NC(=O)c2ccc(CN3CCCC[C@H]3C(=O)O)cn2)cccc1-c1ccccc1 [Example 1, (2S)-1-[(6-{[(2-methylbiphenyl-3-yl)amino]carbonyl}pyridin-3-yl)methyl]piperidine-2-carboxylic Acid] | 10 to 100
28 | Cc1c(NC(=O)c2ccc(CNCCO)nn2)cccc1-c1ccccc1 [Example 12, 6-{[(2-hydroxyethyl)amino]methyl}-N-(2-methylbiphenyl-3-yl)pyridazine-3-carboxamide] | 10 to 100
